Assays:
Type in all cases: in vivo
[1] = test system: blackgrass (Alopecurus myosuroides); experiment: Test A postemergence; conditions: Alopecurus myosuroides, post-emergence, 240 h, Postemergence, read-out: Plant response rating, Blackgrass
Outline: (§1)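 Visual injury scores from 0, no effect, to 100, complete control, were assigned versus untreated controls roughly 10 d after treatment in the greenhouse. Test chemicals, formulated with surfactant in a non-phytotoxic solvent, were applied to planted seeds as a preemergence soil spray or postemergence to one- to two-leaf plants 2 to 10 cm tall, in loam–sand soil.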

[2] = test system: wheat (Triticum aestivum); experiment: Test A postemergence; conditions: Triticum aestivum, post-emergence, 240 h, Postemergence, read-out: Plant response rating, Wheat
Outline: as §1

[3] = test system: giant foxtail (Setaria faberii); experiment: Test A postemergence; conditions: Setaria faberi, post-emergence, 240 h, Postemergence, read-out: Plant response rating, Foxtail, Giant
Outline: as §1

[4] = test system: Galium (catchweed bedstraw, Galium aparine); experiment: Test A postemergence; conditions: Galium, post-emergence, 240 h, Postemergence, read-out: Plant response rating, Galium
Outline: as §1

[5] = test system: ryegrass, Italian (Italian ryegrass, Lolium multiflorum); experiment: Test A postemergence; conditions: Lolium multiflorum, post-emergence, 240 h, Postemergence, read-out: Plant response rating, Ryegrass, Italian
Outline: as §1

[6] = test system: pigweed (Amaranthus retroflexus); experiment: Test A postemergence; conditions: Amaranthus retroflexus, post-emergence, 240 h, Postemergence, read-out: Plant response rating, Pigweed
Outline: as §1

Kochia (Kochia scoparia) [7] = experiment: Test A postemergence; conditions: Bassia scoparia, post-emergence, 240 h, Postemergence, read-out: Plant response rating, Kochia
Outline: as §1

[8] = test system: barnyardgrass (Echinochloa crus-galli); experiment: Test A postemergence; conditions: Echinochloa crus-galli, post-emergence, 240 h, Postemergence, read-out: Plant response rating, Barnyardgrass
Outline: as §1

corn (Zea mays) = experiment: Test A postemergence; conditions: Zea mays, post-emergence, 240 h, Postemergence
Outline: as §1

[9] = test system: ragweed (common ragweed, Ambrosia elatior); experiment: Test A postemergence; conditions: Ambrosia artemisiifolia, post-emergence, 240 h, Postemergence, read-out: Plant response rating, Ragweed
Outline: as §1

[10] = test system: ducksalad (Heteranthera limosa); experiment: Test B flooded paddy test; conditions: Heteranthera limosa, 250 g ai/ha, Flood; 0 to 100 scale where 0 is no effect and 100 is complete control; read-out: Ducksalad plant response rating
Outline: (§2)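 Response scored visually against untreated controls, 0 = no effect and 100 = complete control, 13–15 d after treatment in the greenhouse. Compounds added to paddy water held 3 cm above soil surface. Treatment given at 2-leaf stage.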

rice (Oryra sativa) = experiment: Test B flooded paddy test; conditions: Oryza sativa, 250 g ai/ha, Flood; 0 to 100 scale where 0 is no effect and 100 is complete control; read-out: Rice plant response rating
Outline: as §2

[11] = test system: sedge, umbrella (small-flower umbrella sedge, Cyperus difformis); experiment: Test B flooded paddy test; conditions: Cyperus difformis, 250 g ai/ha, Flood; 0 to 100 scale where 0 is no effect and 100 is complete control; read-out: Sedge, Umbrella plant response rating
Outline: as §2

[12] = test system: barnyardgrass (Echinochloa crus-galli); experiment: Test B flooded paddy test; conditions: Echinochloa crus-galli, 250 g ai/ha, Flood; 0 to 100 scale where 0 is no effect and 100 is complete control; read-out: Barnyardgrass plant response rating
Outline: as §2

[13] = test system: giant foxtail (Setaria faberii); experiment: Test A preemergence; conditions: Setaria faberi, pre-emergence, 240 h, Preemergence
Outline: as §1

[14] = test system: ryegrass, Italian (Italian ryegrass, Lolium multiflorum); experiment: Test A preemergence; conditions: Lolium multiflorum, pre-emergence, 240 h, Preemergence
Outline: as §1

[15] = test system: pigweed (Amaranthus retroflexus); experiment: Test A preemergence; conditions: Amaranthus retroflexus, pre-emergence, 240 h, Preemergence
Kochia (Kochia scoparia) [16] = experiment: Test A preemergence; conditions: Bassia scoparia, pre-emergence, 240 h, Preemergence
Outline: as §1

[17] = test system: barnyardgrass (Echinochloa crus-galli); experiment: Test A preemergence; conditions: Echinochloa crus-galli, pre-emergence, 240 h, Preemergence
Outline: as §1

[18] = test system: ragweed (common ragweed, Ambrosia elatior); experiment: Test A preemergence; conditions: Ambrosia artemisiifolia, pre-emergence, 240 h, Preemergence
Outline: as §1

[19] = 125 g ai/ha, visual injury after approximately 10 d, 0 to 100 scale where 0 is no effect and 100 is complete control
[20] = 31 g ai/ha, visual injury after approx. 10 d, 0 to 100 scale, 0 no effect, 100 complete control

CSc1ccccc1NC(=O)[C@H]1C(=O)N(C2CC2)CC[C@@H]1c1ccc(F)cc1 [Compound 1005]
0%: pest or weed control at 125 g/ha [1, 19] | pest or weed control at 31 g/ha [1, 20] | plant injury at 125 g/ha [2, 19] | plant injury at 31 g/ha [2, 20] | pest or weed control at 125 g/ha [3, 19] | pest or weed control at 31 g/ha [3, 20] | pest or weed control at 125 g/ha [4, 19] | pest or weed control at 31 g/ha [4, 20] | pest or weed control at 125 g/ha [5, 19] | pest or weed control at 31 g/ha [5, 20] | pest or weed control at 125 g/ha [6, 19] | pest or weed control at 31 g/ha [6, 20] | pest or weed control at 125 g/ha (Kochia (Kochia scoparia) [7]; [19]) | pest or weed control at 31 g/ha (Kochia (Kochia scoparia) [7]; [20]) | pest or weed control at 125 g/ha [8, 19] | pest or weed control at 31 g/ha [8, 20] | Corn plant response rating (crop injury, 0 = no effect, 100 = complete kill) at 125 g/ha (corn (Zea mays); [19]) | Corn plant response rating (crop injury, 0 = no effect, 100 = complete kill) at 31 g/ha (corn (Zea mays); [20]) | pest or weed control at 125 g/ha [9, 19] | pest or weed control at 31 g/ha [9, 20] | pest or weed control at 250 g/ha [10] | pest or weed control at 250 g/ha (rice (Oryra sativa)) | pest or weed control at 250 g/ha [11] | pest or weed control at 250 g/ha [12] | pest or weed control at 125 g/ha ([13]; 125 g ai/ha, visual injury rating after approximately 10 d, read-out: Foxtail, Giant plant response rating (0 to 100 scale, 0 is no effect, 100 is complete control)) | pest or weed control at 31 g/ha ([13]; 31 g ai/ha, 0 to 100 scale (0 no effect, 100 complete control), read-out: Plant response rating, Foxtail, Giant) | pest or weed control at 31 g/ha ([14]; 31 g ai/ha, 0 to 100 scale where 0 is no effect and 100 is complete control, read-out: Ryegrass, Italian plant response rating) | pest or weed control at 125 g/ha ([14]; 125 g ai/ha, visual injury rating after approximately 10 d, read-out: Ryegrass, Italian plant response rating (0 to 100 scale, 0 is no effect, 100 is complete control)) | pest or weed control at 31 g/ha ([15]; 31 g ai/ha, 0 to 100 scale where 0 is no effect and 100 is complete control, read-out: Pigweed plant response rating) | pest or weed control at 125 g/ha ([15]; 125 g ai/ha, visual injury rating after approximately 10 d, read-out: Pigweed plant response rating (0 to 100 scale, 0 is no effect, 100 is complete control)) | pest or weed control at 31 g/ha (Kochia (Kochia scoparia) [16]; 31 g ai/ha, 0 to 100 scale where 0 is no effect and 100 is complete control, read-out: Kochia plant response rating) | pest or weed control at 125 g/ha (Kochia (Kochia scoparia) [16]; 125 g ai/ha, visual injury rating after approximately 10 d, read-out: Kochia plant response rating (0 to 100 scale, 0 is no effect, 100 is complete control)) | pest or weed control at 125 g/ha ([17]; 125 g ai/ha, visual injury rating after approximately 10 d, read-out: Barnyardgrass plant response rating (0 to 100 scale, 0 is no effect, 100 is complete control)) | pest or weed control at 31 g/ha ([17]; 31 g ai/ha, 0 to 100 scale (0 no effect, 100 complete control), read-out: Plant response rating, Barnyardgrass) | pest or weed control at 31 g/ha ([18]; 31 g ai/ha, 0 to 100 scale where 0 is no effect and 100 is complete control, read-out: Ragweed plant response rating) | pest or weed control at 125 g/ha ([18]; 125 g ai/ha, visual injury rating after approximately 10 d, read-out: Ragweed plant response rating (0 to 100 scale, 0 is no effect, 100 is complete control))

— patent US12077503B2, “Substituted cyclic amides and their use as herbicides” (FMC CORPORATION, priority 2015, dated 2024)
